{
  "source": "patent US20110313015A1",
  "about": "“Fludioxonil Derivatives” (Bayer CropScience AG, priority 2010, published 2011)",
  "tested_on": "common bent (Agrostis capillaris)",
  "assay": "Herbicidal early post-emergence action (microtitre plate, visual assessment of damage)",
  "format": "in vivo",
  "conditions": "application rate 1900 g/ha, assessed after 10 days vs untreated controls, 100% = plants have died, 0% = like control plants",
  "description": "Seeds of mono- and dicotyledonous harmful plants are, in a microtitre plate, placed into sand. The compounds according to the invention, formulated as emulsion concentrates (EC), are then applied as an aqueous emulsion using spray nozzles adapted to the uHTVS to the germinated plants. After the treatment, the microtitre plates are placed in a climatized chamber and kept under good growth conditions for the test plants. The visual assessment of the damage to the test plants is carried out after a trial period of 10 days by comparison with untreated controls (herbicidal activity in percent (%): 100% activity=the plants have died, 0% activity=like control plants).",
  "data": [
    {"molecule": "COC(=O)CCn1cc(C#N)c(-c2cccc3c2OC(F)(F)O3)c1", "note": "[No. 1]", "values": [
      {"measurement": "herbicidal activity", "value": 100, "unit": "%"}
    ]}
  ]
}
